The subject of one data set is U-87 MG cells. In words: Resazurin cell viability / cytotoxicity assay. It is filed as cell-based, human. The conditions noted are these: free drug. As to the method: Regarding cell viability, U-87 MG cells were cultured in DMEM/F-12 medium, supplemented with 10% (v/v) FBS, 1% (v/v) penicillin-streptomycin solution and sodium bicarbonate. Cells were maintained at 37° C. in a humidified atmosphere containing CO2 (5%). The resazurin assay was used to determine the cytotoxicity of NLCs. Briefly, 2000 cells per well were seeded in a 96 well plate and incubated for 24 h or 72 h after the medium was replaced with increasing concentrations of free drugs or NLCs. Subsequently, the medium was removed and the cell viability determined. For this purpose, 100 μL of 10% (w/v) resazurin solution in DMEM/F 12 was added to the cells and incubated for approximately 2 h, at 37° C. The enzymatic reduction of resazurin to resorufin was analyzed by UV/Vis spectrophotometry at 570 nm and 600 nm. Cell viability was assessed indirectly according to equation 1.
On the technique in general: Resazurin is reduced to fluorescent resorufin, in cell work by metabolically active cells.

The test system of the next data set is human blood. The experiment in a line: In vitro hemolytic activity (NCL ITA-1 protocol). The conditions noted are these: positive control, 3 h at 37° C. Type of data set: cell-based. An excerpt: The haemolytic behaviour of NLCs formulations was explored following the Nanotechnology Characterization Lab (NCL) protocol for analysis of Haemolytic Properties of Nanoparticles (NCL ITA-1 Version 1.2), with slight modifications. Briefly, fresh human blood was drawn from healthy participants in the Laboratory of Clinical Analysis of the Faculty of Pharmacy of the University of Coimbra, after a written informed consent was obtained from all individuals. The venous blood, collected in heparinised vacutainer tubes, was properly diluted in PBS to final a concentration of 10 mg/mL of total blood haemoglobin, and incubated with the NLCs at eight different concentrations, regarding ATO content for 3 h at 37° C. Aqueous and acetate buffered polysorbate 80 solutions were also tested in 15 and 100 μg/mL. PBS and Triton™ X-100 were used as negative and positive controls, respectively, with additional no-blood controls being used due to possible interference of CUR at 540 nm. Following incubation, cell-free supernatants were obtained and any plasma-free haemoglobin and metabolites were converted into cyanmethaemoglobin (CMH), using Drabkin's reagent. The detection of CMH was conducted at 540 nm and the percentage of haemolysis (%) was calculated taking into account the equation 2.

Here are results for three molecules from patent US20220387620A1, “NANOSTRUCTURED DRUG DELIVERY SYSTEM AS A MULTIFUNCTIONAL PLATFORM FOR THERAPY” (priority 2019, published 2022).

A word on the IC50: it is the point on the concentration scale where inhibition reaches its midpoint. Higher therefore signals lower potency.

Consider `COc1cc(/C=C/C(=O)CC(=O)/C=C/c2ccc(O)c(OC)c2)ccc1O` [CUR, curcumin], for which the IC50 was determined as 86 ± 35 µM with U-87 MG cells (Homo sapiens, U-87 MG, 24 h of incubation) and 77 ± 1 µM in the data set on U-87 MG cells (Homo sapiens, U-87 MG, 72 h of incubation).

With Triton™ X-100, in the data set with human blood, the hemolysis result was “complete hemolysis”. As for `CC(C)c1c(C(=O)Nc2ccccc2)c(-c2ccccc2)c(-c2ccc(F)cc2)n1CC[C@@H](O)C[C@@H](O)CC(=O)O` [ATO, atorvastatin calcium], the values for the IC50 in the data set on U-87 MG cells (24 h of incubation) and in the data set on U-87 MG cells (72 h of incubation) were 134 ± 27 µM and 25 ± 5 µM, respectively.
